Data taken from US12692269B2, “Therapeutic compounds” (Genentech, Inc., priority 2019, dated 2026).

How the values were obtained:
Type in all cases: binding
[1] = molecular target: TEAD4 TAZ (amino acids 13-57) (Homo sapiens, UniProt Q15561); experiment: TEAD4-TAZ HTRF (TR-FRET) protein-protein interaction assay; conditions: for TEAD4 TAZ HTRF combined: Max % Inhibition: TEAD4, TAZ peptide; for EC50: TEAD4-TAZ HTRF, TR-FRET 665 nm/615 nm, read-out: TEAD4 TAZ HTRF combined: EC50
Summary of the method: (§1)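 TEAD YBD (aa 217-447, His-tag) + Eu anti-His; cpd 30 min; + biotin-YAP 50-100 or biotin-TAZ 13-57 / SA-XL665; 60 min RT; TR-FRET 665/615; 4-parameter IC50/EC50.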

[2] = molecular target: TEAD2 TAZ (amino acids 13-57) (Homo sapiens, UniProt Q15562); experiment: TEAD2-TAZ HTRF (TR-FRET) protein-protein interaction assay; conditions: for TEAD2 TAZ HTRF combined: Max % Inhibition: TEAD2, TAZ peptide; for EC50: TEAD2-TAZ HTRF, TR-FRET 665 nm/615 nm, read-out: TEAD2 TAZ HTRF combined: EC50
Sequence of TEAD2 TAZ (amino acids 13-57) (Q15562 217-447): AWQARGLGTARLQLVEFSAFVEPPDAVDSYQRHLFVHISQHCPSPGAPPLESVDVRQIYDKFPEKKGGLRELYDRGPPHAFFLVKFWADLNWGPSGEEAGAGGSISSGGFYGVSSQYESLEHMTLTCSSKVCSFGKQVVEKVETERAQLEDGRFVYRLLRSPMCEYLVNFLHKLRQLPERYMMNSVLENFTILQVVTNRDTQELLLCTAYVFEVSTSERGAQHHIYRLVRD
Summary of the method: as §1

[3] = molecular target: TEAD3 TAZ (amino acids 13-57) (Homo sapiens, UniProt Q99594); experiment: TEAD3-TAZ HTRF (TR-FRET) protein-protein interaction assay; conditions: for TEAD3 TAZ HTRF combined: Max % Inhibition: TEAD3, TAZ peptide; for EC50: TEAD3-TAZ HTRF, TR-FRET 665 nm/615 nm, read-out: TEAD3 TAZ HTRF combined: EC50
Sequence of TEAD3 TAZ (amino acids 13-57) (Q99594 173-435 limits assumed): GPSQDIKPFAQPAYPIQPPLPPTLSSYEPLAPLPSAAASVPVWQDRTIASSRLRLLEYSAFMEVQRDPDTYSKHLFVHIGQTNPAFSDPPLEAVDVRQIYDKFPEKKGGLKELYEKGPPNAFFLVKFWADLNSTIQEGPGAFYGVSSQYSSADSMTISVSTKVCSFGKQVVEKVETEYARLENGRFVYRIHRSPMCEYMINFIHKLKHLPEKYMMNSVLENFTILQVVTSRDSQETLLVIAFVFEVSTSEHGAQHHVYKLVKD
Summary of the method: as §1

[4] = molecular target: TEAD1 YAP50-100 (Homo sapiens, UniProt P28347); experiment: TEAD1-YAP HTRF (TR-FRET) protein-protein interaction assay; conditions: TEAD1, YAP peptide 50-100, HTRF; for EC50: read-out: TEAD1 YAP50-100 HTRF combined: EC50
Sequence of TEAD1 YAP50-100 (P28347 167-426 limits assumed): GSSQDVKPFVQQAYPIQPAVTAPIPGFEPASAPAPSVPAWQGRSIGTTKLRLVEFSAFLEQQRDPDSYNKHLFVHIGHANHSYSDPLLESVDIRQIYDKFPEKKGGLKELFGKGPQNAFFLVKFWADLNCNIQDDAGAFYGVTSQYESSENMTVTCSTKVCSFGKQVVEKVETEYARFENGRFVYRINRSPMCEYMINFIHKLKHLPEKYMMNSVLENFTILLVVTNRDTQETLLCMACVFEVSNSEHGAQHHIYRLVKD
Summary of the method: as §1

[5] = molecular target: TEAD3 YAP50-100 (Homo sapiens, UniProt Q99594); experiment: TEAD3-YAP HTRF (TR-FRET) protein-protein interaction assay; conditions: TEAD3, YAP peptide 50-100, HTRF; for EC50: read-out: TEAD3 YAP50-100 HTRF combined: EC50
Sequence of TEAD3 YAP50-100 (Q99594 173-435 limits assumed): as the sequence (Q99594 173-435 limits assumed) above
Summary of the method: as §1

[6] = molecular target: TEAD1 TAZ (amino acids 13-57) (Homo sapiens, UniProt P28347); experiment: TEAD1-TAZ HTRF (TR-FRET) protein-protein interaction assay; conditions: for TEAD1 TAZ HTRF combined: Max % Inhibition: TEAD1, TAZ peptide; for EC50: TEAD1-TAZ HTRF, TR-FRET 665 nm/615 nm, read-out: TEAD1 TAZ HTRF combined: EC50
Sequence of TEAD1 TAZ (amino acids 13-57) (P28347 167-426 limits assumed): as the sequence (P28347 167-426 limits assumed) above
Summary of the method: as §1

[7] = molecular target: TEAD4 YAP50-100 (Homo sapiens, UniProt Q15561); experiment: TEAD4-YAP HTRF (TR-FRET) protein-protein interaction assay; conditions: TEAD4, YAP peptide 50-100, HTRF; for EC50: read-out: TEAD4 YAP50-100 HTRF combined: EC50
Sequence of TEAD4 YAP50-100 (Q15561 217-434 limits assumed): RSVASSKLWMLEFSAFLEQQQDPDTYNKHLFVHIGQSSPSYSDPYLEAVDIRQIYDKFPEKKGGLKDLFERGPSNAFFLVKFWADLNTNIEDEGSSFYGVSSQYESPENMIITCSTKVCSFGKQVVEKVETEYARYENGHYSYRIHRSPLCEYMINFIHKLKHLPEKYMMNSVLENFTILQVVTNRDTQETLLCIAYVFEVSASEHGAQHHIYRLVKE
Summary of the method: as §1

[8] = molecular target: TEAD2 YAP50-100 (Homo sapiens, UniProt Q15562); experiment: TEAD2-YAP HTRF (TR-FRET) protein-protein interaction assay; conditions: TEAD2, YAP peptide 50-100, HTRF; for EC50: read-out: TEAD2 YAP50-100 HTRF combined: EC50
Sequence of TEAD2 YAP50-100 (Q15562 217-447): as the sequence (Q15562 217-447) above
Summary of the method: as §1

Sequence of TEAD4 TAZ (amino acids 13-57) (Q15561 217-434 limits assumed): as the sequence (Q15561 217-434 limits assumed) above

Row | TEAD4 TAZ HTRF combined: Max % Inhibition [1] | EC50 [1] | TEAD2 TAZ HTRF combined: Max % Inhibition [2] | EC50 [2] | TEAD3 TAZ HTRF combined: Max % Inhibition [3] | EC50 [3] | TEAD1 YAP50-100 HTRF combined: Max % Inhibition [4] | EC50 [4] | TEAD3 YAP50-100 HTRF combined: Max % Inhibition [5] | EC50 [5] | TEAD1 TAZ HTRF combined: Max % Inhibition [6] | EC50 [6] | TEAD4 YAP50-100 HTRF combined: Max % Inhibition [7] | EC50 [7] | TEAD2 YAP50-100 HTRF combined: Max % Inhibition [8] | EC50 [8] | SMILES
1 | 58.0% | 150 nM | 69.0% | 20 nM | 48.0% | 180 nM | 70.0% | 50 nM | 57.0% | 150 nM | 62.0% | 60 nM | 66.0% | 180 nM | 68.0% | 20 nM | CC(C)c1ccc(COc2cc(=O)n3nc(-c4cnccn4)c(C(=O)N4CC(CF)C4)c3[nH]2)cc1 [Compound 52, 3-(3-(Fluoromethyl)azetidine-1-carbonyl)-5-((4-isopropylbenzyl)oxy)-2-(pyrazin-2-yl)pyrazolo[1,5-a]primidin-7(4H)-one]
2 | 51.5% | 30 nM | 67.0% | 20 nM | 46.0% | 90 nM | 72.0% | 50 nM | 58.5% | 110 nM | 62.5% | 70 nM | 65.5% | 50 nM | 64.5% | 20 nM | CC(C)(C)c1ccc(COc2cc(=O)n3nc(-c4cnccn4)c(C(=O)N4CC(CF)C4)c3[nH]2)cc1 [Compound 53, 5-((4-(Tert-butyl)benzyl)oxy)-3-(3-(fluoromethyl)azetidine-1-carbonyl)-2-(pyrazin-2-yl)pyrazolo[1,5-a]pyrimidin-7(4H)-one]
3 | 56.0% | 40 nM | 59.5% | 20 nM | 45.0% | 90 nM | 71.0% | 50 nM | 56.5% | 80 nM | 63.0% | 70 nM | 60.5% | 40 nM | 59.0% | 20 nM | CC(C)(C)c1ccc(COc2cc(=O)n3nc(-c4ncccn4)c(C(=O)N4CC(CF)C4)c3[nH]2)cc1 [Compound 54, 5-((4-(Tert-butyl)benzyl)oxy)-3-(3-(fluoromethyl)azetidine-1-carbonyl)-2-(pyrimidin-2-yl)pyrazolo[1,5-a]pyrimidin-7(4H)-one]
4 | 39.5% | 110 nM | 60.0% | 50 nM | 55.0% | 210 nM | 72.0% | 260 nM | 62.0% | 200 nM | 67.0% | 240 nM | 44.5% | 140 nM | 56.5% | 60 nM | Cc1nccnc1-c1nn2c(=O)cc(-c3ccc(C4CCC(F)(F)CC4)cc3)[nH]c2c1C(=O)N1CC(CF)C1 [Compound 55, 5-(4-(4,4-Difluorocyclohexyl)phenyl)-3-(3-(fluoromethyl)azetidine-1-carbonyl)-2-(3-methylpyrazin-2-yl)pyrazolo[1,5-a]pyrimidin-7(4H)-one]
